Reference: patent US7410955B2, “Therapeutic use of agonist ligands specific to G2A receptor” (Biosynergen, Inc., priority 2002, dated 2008)

How the values were obtained:
G2A = target: T1, G2A (Homo sapiens, UniProt Q9UNW8); settings: reported by Kabarowski et al., Science 2001; cited from earlier work
T1 sequence (Q9UNW8 1-380): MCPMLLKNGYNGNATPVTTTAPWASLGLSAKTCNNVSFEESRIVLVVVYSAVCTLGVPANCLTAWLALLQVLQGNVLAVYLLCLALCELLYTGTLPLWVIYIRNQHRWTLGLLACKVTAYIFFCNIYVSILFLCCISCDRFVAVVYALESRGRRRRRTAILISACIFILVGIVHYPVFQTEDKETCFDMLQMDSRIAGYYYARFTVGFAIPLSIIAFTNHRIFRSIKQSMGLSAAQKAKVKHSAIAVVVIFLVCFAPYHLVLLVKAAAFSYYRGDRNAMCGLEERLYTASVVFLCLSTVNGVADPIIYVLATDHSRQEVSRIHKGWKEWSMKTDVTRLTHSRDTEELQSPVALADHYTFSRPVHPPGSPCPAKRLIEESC

CLP-induced Sepsis model = assay: CLP-induced sepsis model; type: in vivo, ICR mice; settings: 10 mg/kg intraperitoneal, same methods as Example 6-2 (four times at 12 hour intervals, 2 hours after CLP)
Protocol: After ICR mice (25-30 g in body weight; MJ Ltd.) had been anesthetized with pentobarbital, right abdominal sites of the mice were dissected in a length of 1 cm to expose their cecum, and sites below the ileocecal valve were ligated. And then, after 4˜6 punctures had been created on the cecum with 21-gauge needle, the abdomen was sutured again to cause peritonitis, thereby inducing Sepsis.
After the peritoneal cavity of mice had been exposed, it was washed with sterilized saline (2 ml). The resultant solution was diluted with HBSS (Sigma Chemical Co., USA) in a ratio of 1/1000, and then 10 μl of each diluted solution was spread on Trypticase Soy agar (BBL, Becton Dickinson Co., USA) plates. After overnight incubation at 37° C., colony forming unit (CFU) was measured.
7 mice were administered with 1-stearoyl LPC (Sigma Chemical Co., USA) dissolved in 1% BSA solution containing no fatty acid in an amount of 10 mg/kg by subcutaneous injection 2 and 14 hours after the CLP surgery, respectively (experimental group). The remaining 7 mice were administered with 1% BSA solution containing no fatty acid of the same amount as above in the same manner (control group). The numbers of intraperitoneal E. coli cells in the ICR mice of experimental and control groups were measured in accordance with Reference Example 3, 24 hours after the CLP surgery.
Each 10 ICR mice were intraperitoneally administered with 1-stearoyl LPC (Sigma Chemical Co., USA) dissolved in 1% BSA solution containing no fatty acid in amounts of 5, 10, and 20 mg/kg, respectively, four times at intervals of 12 hours, 2 hours after the CLP surgery (experimental group-1, -2 and -3). The remaining 10 ICR mice were administered only with 1% BSA solution containing no fatty acid (control group). And then, the survival rates of mice in experimental- and control groups were investigated over the lapse of time.
10 mice for the experimental group were intraperitoneally administered with 1-stearoyl LPC (Sigma Chemical Co., USA) dissolved in 1% BSA solution containing no fatty acid in an amount of 10 mg/kg, four times at intervals of 12 hours, 10 hours after the CLP surgery. The remaining 10 mice for the control group were administered only with 1% BSA solution containing no fatty acid. Thereafter, the survival rates of ICR mice in experimental- and control groups were investigated over the lapse of time.
CLP-induced Sepsis model mice were subcutaneously injected with SPC, instead of 1-stearoyl LPC, in dosages of 3 mg/kg and 30 mg/kg four times at intervals of 12 hours, 2 hours after the CLP surgery, respectively. The survival rates of mice were investigated.

neutrophils = assay: Inhibition of anti-apoptosis of neutrophils by inflammation mediators (AcOr/EtBr staining); type: cell-based, human; settings: 15 μM and 30 μM, 1 hour before 1 μg/ml LPS, read after 24 hours
Excerpt: Neutrophils were isolated from healthy adults using discontinuous percoll gradient according to the method of Szucs, S. et al. (J. Immunol. Methods, 167: 245-251, 1994). First, plasmas were separated from heparinized whole blood, and red blood cells were depleted by dextran sedimentation. Thereafter, leukocytes were layered over a percoll gradient with densities of 1.077 and 1.094 (Pharmacia, Sweden). Separated neutrophil layers were recovered from the percoll gradient interface, and then washed with HBSS (Hank's balanced salt solution, Sigma Chemical Co., USA). The remaining pellet was resuspended in RPMI 1640 medium supplemented with 10% FBS (fetal bovine serum) and 2 mM gentamicin. As a result of the examination of the cytospin stained with Wright-Giemsa (Sigma Chemical Co., USA), it was observed that the resuspension solution contained 95% or more neutrophils. Also, as a result of examination using trypan blue dye exclusion method, 98% or more neutrophils were observed.
1×10^5 neutrophil cells isolated in above Example <1-1> were cultured in a 96-well plate to which RPMI1640 medium containing 10% FBS was added. Thereafter, they were treated with 1-stearoyl lysophosphatidylcoline (Sigma Chemical Co., USA) in concentrations of 15 μM and 30 μM, respectively. After 1 hour, they were treated with 1 μg/ml LPS (Sigma Chemical Co.). After 24 hours, the medium was removed from the plats, and the remaining cells were washed twice with PBS (phosphate-buffered saline) buffer at 4° C. The cells adhered to the bottom of the plate were all scraped and put into a 1.5-ml eppendorf tube. Then, they were centrifuged at 2500 rpm for 5 min, and the supernatant was removed. Again, 0.1 ml of PBS buffer at 4° C. was added to the pellet, which was then well mixed using pipetting. To 25 μl of the cell suspension was added 2 μl of AcOr/EtBr dye solution in which 100 μg/ml of acridine orange (AcOr) and 100 μg/ml of ethidium bromide (EtBr) were mixed. Then, the percentage of apoptotic cells/total cells was calculated with observing the neutrophil cells under a fluorescence microscope. […]

Row | Compound | affinity of G2A to the ligand (G2A) | therapeutic effect against Sepsis (survival) (CLP-induced Sepsis model) | percentage of neutrophil apoptosis (apoptotic cells/total cells) that had been decreased by LPS (neutrophils)
1 | lysophosphatidylcholine | high affinity | – | –
2 | CCCCCCCC/C=C\CCCCCCCC(=O)OCC(O)COP(=O)([O-])OCC[N+](C)(C)C (centres unmarked) [1-oleoyl LPC, 1-oleoyl (18:1) lysophosphatidylcholine] | – | excellent therapeutic effect | –
3 | CCCCCCCCCCCCC/C=C/[C@@H](O)[C@@H](N)COP(=O)([O-])OCC[N+](C)(C)C [SPC, sphingosylphosphorylcholine] | low affinity | – | increased by SPC in a concentration-dependent manner
4 | CCCCCCCCCCCCCC(=O)OC[C@@H](O)COP(=O)([O-])OCC[N+](C)(C)C [1-myristoyl LPC, 1-myristoyl (14:0) lysophospatidylcholine] | – | excellent therapeutic effect | –
